# Source: ChEMBL document CHEMBL1781986, “Structure-activity relationships of pyrrole based S-nitrosoglutathione reductase inhibitors: pyrrole regioisomers and propionic acid replacement” (Bioorg Med Chem Lett, 2011)
# Calls of active or inactive are those of the source. The calls are words filed in the database; no cut-off is given here.
# Columns and labels:
# [1] = Inhibition of GSNOR expressed in Escherichia coli using GSNO by plate method
# [2] = biological target: Adrenergic receptor alpha-1 (Homo sapiens) (UniProt P35348+P25100+P35368); assay: Inhibition of human recombinant alpha1 receptor at 10 uM by radioligand binding assay
# [3] = biological target: Adrenergic receptor alpha-2 (Homo sapiens) (UniProt P08913+P18825+P18089); assay: Inhibition of human recombinant alpha2 receptor at 10 uM by radioligand binding assay
# [4] = biological target: Cannabinoid receptor 1 (Homo sapiens) (UniProt P21554); assay: Inhibition of human recombinant CB1 receptor at 10 uM by radioligand binding assay
# Chain of Cannabinoid receptor 1 (Homo sapiens) (P21554 whole entry): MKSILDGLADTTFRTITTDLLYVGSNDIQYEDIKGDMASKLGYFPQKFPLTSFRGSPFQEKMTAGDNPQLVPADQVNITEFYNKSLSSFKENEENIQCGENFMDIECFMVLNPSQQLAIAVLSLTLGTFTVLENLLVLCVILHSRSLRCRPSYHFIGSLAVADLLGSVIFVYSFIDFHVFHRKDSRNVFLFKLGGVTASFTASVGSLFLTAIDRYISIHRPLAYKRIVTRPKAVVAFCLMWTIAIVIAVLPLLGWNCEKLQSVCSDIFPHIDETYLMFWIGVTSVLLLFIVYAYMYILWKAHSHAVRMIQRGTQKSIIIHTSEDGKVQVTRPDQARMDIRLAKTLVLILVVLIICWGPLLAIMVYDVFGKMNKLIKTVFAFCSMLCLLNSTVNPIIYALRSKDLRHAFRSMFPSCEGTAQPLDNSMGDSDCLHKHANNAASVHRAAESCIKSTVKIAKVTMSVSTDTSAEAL
# [5] = biological target: T1, Endothelin-1 receptor (Homo sapiens) (UniProt P25101); assay: Inhibition of human recombinant ETA receptor at 10 uM by radioligand binding assay
# T1 sequence (whole entry): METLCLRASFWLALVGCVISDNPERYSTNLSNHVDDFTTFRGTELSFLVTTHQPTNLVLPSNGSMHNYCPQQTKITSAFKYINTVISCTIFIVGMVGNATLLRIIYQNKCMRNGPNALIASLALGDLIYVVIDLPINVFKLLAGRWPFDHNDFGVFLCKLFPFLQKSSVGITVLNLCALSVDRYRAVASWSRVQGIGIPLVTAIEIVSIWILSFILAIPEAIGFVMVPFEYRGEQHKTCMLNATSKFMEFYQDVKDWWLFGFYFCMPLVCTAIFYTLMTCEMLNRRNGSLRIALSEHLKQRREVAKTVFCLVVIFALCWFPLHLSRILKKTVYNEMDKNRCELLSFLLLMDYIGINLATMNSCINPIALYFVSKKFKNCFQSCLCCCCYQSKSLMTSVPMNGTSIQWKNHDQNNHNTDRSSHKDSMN
# [6] = biological target: T2, Galanin receptor type 2 (Homo sapiens) (UniProt O43603); assay: Inhibition of human recombinant GAL2 receptor at 10 uM by radioligand binding assay
# T2 sequence (whole entry): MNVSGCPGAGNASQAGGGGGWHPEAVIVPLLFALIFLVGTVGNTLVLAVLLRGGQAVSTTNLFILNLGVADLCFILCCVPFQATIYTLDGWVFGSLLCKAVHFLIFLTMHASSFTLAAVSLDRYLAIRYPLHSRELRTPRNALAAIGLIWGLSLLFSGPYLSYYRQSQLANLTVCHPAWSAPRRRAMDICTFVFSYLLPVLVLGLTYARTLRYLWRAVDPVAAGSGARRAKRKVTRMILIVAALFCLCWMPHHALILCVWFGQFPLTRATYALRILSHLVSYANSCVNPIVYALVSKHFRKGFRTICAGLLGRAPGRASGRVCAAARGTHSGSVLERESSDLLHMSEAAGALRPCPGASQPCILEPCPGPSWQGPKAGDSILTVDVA
# [7] = biological target: T3, C-X-C chemokine receptor type 2 (Homo sapiens) (UniProt P25025); assay: Inhibition of human recombinant CXCR2 receptor at 10 uM by radioligand binding assay
# T3 sequence (whole entry): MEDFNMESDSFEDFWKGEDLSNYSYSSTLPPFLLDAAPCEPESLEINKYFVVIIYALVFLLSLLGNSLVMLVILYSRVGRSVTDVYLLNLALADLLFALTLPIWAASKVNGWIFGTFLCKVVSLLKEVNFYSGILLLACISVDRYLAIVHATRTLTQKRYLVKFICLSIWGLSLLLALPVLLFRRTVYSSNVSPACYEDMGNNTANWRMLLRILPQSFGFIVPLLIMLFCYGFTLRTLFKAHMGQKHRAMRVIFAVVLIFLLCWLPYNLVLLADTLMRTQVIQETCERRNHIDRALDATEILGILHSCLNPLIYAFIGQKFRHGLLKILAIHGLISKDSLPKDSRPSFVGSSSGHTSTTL
# [8] = biological target: T4, Muscarinic acetylcholine receptor M2 (Homo sapiens) (UniProt P08172); assay: Inhibition of human recombinant M2 receptor at 10 uM by radioligand binding assay
# T4 sequence (whole entry): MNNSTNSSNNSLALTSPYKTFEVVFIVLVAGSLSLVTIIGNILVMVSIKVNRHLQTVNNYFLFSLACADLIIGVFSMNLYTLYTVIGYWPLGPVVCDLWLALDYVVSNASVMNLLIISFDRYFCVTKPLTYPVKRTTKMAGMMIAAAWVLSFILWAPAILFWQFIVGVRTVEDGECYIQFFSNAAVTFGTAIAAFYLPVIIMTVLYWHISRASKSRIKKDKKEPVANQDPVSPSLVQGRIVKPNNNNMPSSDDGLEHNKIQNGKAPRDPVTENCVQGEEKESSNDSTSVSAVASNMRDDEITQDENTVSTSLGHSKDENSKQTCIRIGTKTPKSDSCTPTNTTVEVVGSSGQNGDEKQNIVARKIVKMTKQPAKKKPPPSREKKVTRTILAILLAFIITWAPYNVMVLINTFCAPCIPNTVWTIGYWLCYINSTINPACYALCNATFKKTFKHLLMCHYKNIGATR
# Homo sapiens [9] = species on record: Homo sapiens; assay: Inhibition of human recombinant Dop delta2 receptor at 10 uM by radioligand binding assay
# [10] = biological target: Kappa-type opioid receptor (Homo sapiens) (UniProt P41145); assay: Inhibition of human recombinant KOP receptor at 10 uM by radioligand binding assay
# Chain of Kappa-type opioid receptor (Homo sapiens) (P41145 whole entry): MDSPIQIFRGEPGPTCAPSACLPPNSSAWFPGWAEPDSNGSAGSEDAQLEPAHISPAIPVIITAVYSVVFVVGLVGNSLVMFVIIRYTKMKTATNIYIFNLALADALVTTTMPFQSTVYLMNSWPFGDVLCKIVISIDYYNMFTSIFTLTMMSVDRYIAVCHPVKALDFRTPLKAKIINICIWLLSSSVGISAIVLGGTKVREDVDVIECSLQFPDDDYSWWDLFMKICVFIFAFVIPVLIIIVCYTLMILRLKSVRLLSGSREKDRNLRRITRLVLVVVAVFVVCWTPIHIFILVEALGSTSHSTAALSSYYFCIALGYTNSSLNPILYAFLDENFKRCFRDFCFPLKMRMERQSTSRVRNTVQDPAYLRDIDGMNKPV
# [11] = biological target: T5, Thromboxane A2 receptor (Homo sapiens) (UniProt P21731); assay: Inhibition of human recombinant TP receptor at 10 uM by radioligand binding assay
# T5 sequence (whole entry): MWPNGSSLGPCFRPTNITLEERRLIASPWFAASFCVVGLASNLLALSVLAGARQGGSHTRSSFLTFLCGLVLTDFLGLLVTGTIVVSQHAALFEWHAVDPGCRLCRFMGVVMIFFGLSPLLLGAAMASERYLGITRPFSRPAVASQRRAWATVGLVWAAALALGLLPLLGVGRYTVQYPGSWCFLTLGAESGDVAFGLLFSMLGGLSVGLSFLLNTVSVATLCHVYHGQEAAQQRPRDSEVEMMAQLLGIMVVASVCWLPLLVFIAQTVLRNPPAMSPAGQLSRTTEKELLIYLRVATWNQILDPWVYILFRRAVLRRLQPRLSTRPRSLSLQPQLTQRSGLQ
# [12] = biological target: 5-hydroxytryptamine receptor 6 (Homo sapiens) (UniProt P50406); assay: Inhibition of human recombinant 5HT6 receptor at 10 uM by radioligand binding assay
# Chain of 5-hydroxytryptamine receptor 6 (Homo sapiens) (P50406 whole entry): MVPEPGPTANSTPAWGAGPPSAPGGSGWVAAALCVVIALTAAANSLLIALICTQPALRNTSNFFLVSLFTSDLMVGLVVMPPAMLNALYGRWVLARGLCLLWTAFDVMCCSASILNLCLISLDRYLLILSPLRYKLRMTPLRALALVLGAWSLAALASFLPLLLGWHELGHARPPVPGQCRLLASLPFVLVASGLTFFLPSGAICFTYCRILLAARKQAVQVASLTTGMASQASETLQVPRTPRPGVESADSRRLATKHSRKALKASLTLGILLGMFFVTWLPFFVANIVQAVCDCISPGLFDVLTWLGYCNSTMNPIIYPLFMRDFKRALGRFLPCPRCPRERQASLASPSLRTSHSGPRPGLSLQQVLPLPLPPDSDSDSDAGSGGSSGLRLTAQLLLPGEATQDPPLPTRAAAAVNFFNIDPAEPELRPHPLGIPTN
# [13] = system: Voltage-gated potassium channel; assay: Inhibition of human recombinant Kv channel at 10 uM by radioligand binding assay; assay type: protein assay
# Homo sapiens [14] = species on record: Homo sapiens; assay: Inhibition of human recombinant sodium channel at 10 uM by radioligand binding assay
# [15] = biological target: Neuropeptide Y receptor type 2 (Homo sapiens) (UniProt P49146); assay: Inhibition of human recombinant Y2 receptor at 10 uM by radioligand binding assay
# Chain of Neuropeptide Y receptor type 2 (Homo sapiens) (P49146 whole entry, looked up): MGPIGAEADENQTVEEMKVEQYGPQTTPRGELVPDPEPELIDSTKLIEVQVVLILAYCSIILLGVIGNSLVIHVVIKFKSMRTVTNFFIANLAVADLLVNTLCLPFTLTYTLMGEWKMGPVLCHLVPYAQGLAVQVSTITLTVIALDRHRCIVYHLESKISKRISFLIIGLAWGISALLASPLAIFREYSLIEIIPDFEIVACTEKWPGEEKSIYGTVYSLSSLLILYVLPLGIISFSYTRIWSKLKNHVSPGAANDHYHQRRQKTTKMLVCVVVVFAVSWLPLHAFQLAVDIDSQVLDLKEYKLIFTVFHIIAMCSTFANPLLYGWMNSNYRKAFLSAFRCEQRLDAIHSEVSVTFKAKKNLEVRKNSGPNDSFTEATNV
Structure (SMILES),IC50 [1] [nM],inhibition [2],inhibition [3],inhibition [4],inhibition [5],inhibition [6],inhibition [7],inhibition [8],inhibition (Homo sapiens [9]),inhibition [10],inhibition [11],inhibition [12],inhibition (INH) [13],inhibition (Homo sapiens [14]),inhibition [15]
Cc1cc(C(N)=O)ccc1-n1c(CCC(=O)O)ccc1-c1ccc(-n2ccnc2)cc1 [N6022],10,inactive,inactive,inactive,inactive,inactive,inactive,inactive,Active,inactive,inactive,inactive,Not Active,inactive,inactive
COc1ccc(-c2ccn(-c3ccc(C(=O)O)c(O)c3)c2-c2ccc(C(N)=O)cc2C)cc1,–,Active,Active,Active,Active,Active,Active,Active,Active,Active,Active,Active,Active,Active,Active
COc1ccc(-c2ccn(-c3ccc(O)c([N+](=O)[O-])c3)c2-c2ccc(C(N)=O)cc2C)cc1,–,Active,Active,Active,Active,Active,Active,Active,Active,Active,Active,Active,Active,Active,Active

# Second part, the molecule after the results:
IC50 [1] [nM],inhibition [2],inhibition [3],inhibition [4],inhibition [5],inhibition [6],inhibition [7],inhibition [8],inhibition (Homo sapiens [9]),inhibition [10],inhibition [11],inhibition [12],inhibition (INH) [13],inhibition (Homo sapiens [14]),inhibition [15],Structure (SMILES)
35,inactive,inactive,inactive,inactive,inactive,inactive,inactive,Active,inactive,inactive,inactive,Not Active,inactive,inactive,Cc1cc(C(N)=O)ccc1-c1c(-c2ccc(-n3ccnc3)cc2)ccn1CCC(=O)O
9.9,inactive,inactive,inactive,inactive,inactive,inactive,inactive,Active,inactive,inactive,inactive,Not Active,inactive,inactive,Cc1cc(C(N)=O)ccc1-c1c(CCC(=O)O)ccn1-c1ccc(-n2ccnc2)cc1
